{"source": "paper PMC10165273", "about": "“Itch receptor MRGPRX4 interacts with the receptor activity–modifying proteins” (The Journal of Biological Chemistry, 2023)", "molecular_target": "T1, MRGPRX4 + RAMP3 (Homo sapiens, UniProt Q96LA9)", "T1 construct": "expressed in transfected cells; host or cells: HEK293T", "T1 sequence (Q96LA9 whole entry)": "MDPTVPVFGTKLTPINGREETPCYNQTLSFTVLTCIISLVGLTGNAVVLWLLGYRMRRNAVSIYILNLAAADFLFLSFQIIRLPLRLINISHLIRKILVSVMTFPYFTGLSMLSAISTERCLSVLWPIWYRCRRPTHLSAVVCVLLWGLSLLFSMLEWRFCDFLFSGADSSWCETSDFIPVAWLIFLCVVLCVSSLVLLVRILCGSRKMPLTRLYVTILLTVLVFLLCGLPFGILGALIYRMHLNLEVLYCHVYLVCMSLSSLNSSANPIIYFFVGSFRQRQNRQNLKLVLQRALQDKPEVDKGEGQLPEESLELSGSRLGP", "assay": "IP1 accumulation, MRGPRX4 coexpressed with RAMP3", "format": "cell-based", "design": "key to IP1 Basal / response to agonist, X4:ramp3.I:0.25 / response to agonist, X4:ramp3.I:0.5 / response to agonist, X4:ramp3.I:1: % IP1; unstimulated mock = 0%, fully stimulated MRGPRX4 = 100%", "conditions": "for activation at 100 µM / activation at 20 µM / activation at 4 µM / activation at 0.8 µM / activation at […] / activation at 0.032 µM: 2 h, Fig S3f, read-out: IP1 accumulation; for activation at 100 µM: log [DCA] (M) -4; for activation at 20 µM: log [DCA] (M) -4.69897; for activation at 4 µM: log [DCA] (M) -5.39794; for activation at 0.8 µM: log [DCA] (M) -6.09691; for activation at […]: log [DCA] (M) -6.79588; for activation at 0.032 µM: log [DCA] (M) -7.49485", "protocol": "HEK293T cells were transfected with 1 pg/cell of MRGPRX4 DNA, and the amount of DNA was kept constant at 2 pg/cell with pcDNA3.1(+) empty vector, unless otherwise specified. Twenty four hours after transfection, IP1 assay was performed as previously described ([51]). When applicable, cells were treated with 1 μM YM254890 (YM) or different concentrations of U73122 for 1 h prior to addition of agonist or buffer. After incubation for 2 h, HTRF reagents and IP1 calibration standards were added and incubated for 2 h in the dark at room temperature. Time-resolved fluorescence signals were read on the BioTek Synergy NEO-TRF Hybrid multi-mode reader (BioTek Instruments). All data were carried out in three independent experiments with three technical replicate each.\nFor RAMP DNA titration assay, HEK293T cells were cotransfected with a constant amount of 1 pg/cell of FLAG-MRGPRX4-GFP10-1D4 to which a serial dilution of 1, 0.75, 0.5, 0.25, or 0 pg/cell of each HA-RAMP-OLLAS was added. For a homogenous transfection of MRGPRX4, a master mix of MRGPRX4 DNA was made prior to addition of the RAMP DNA. […]\nData reduction, standard calibration, and transformation of HTRF data were performed as previously described ([51]). Normalized IP1 values were calculated relative to the unstimulated mock-transfected cells (set to 0%) and fully stimulated MRGPRX4 (alone if applicable) (set to 100%).", "key": {"[1]": {"conditions": "MRGPRX4 + RAMP3 0.25 pg (Fig. S3), normalized per agonist"}, "[2]": {"conditions": "MRGPRX4 + RAMP3 0.5 pg (Fig. S3), normalized per agonist"}, "[3]": {"conditions": "MRGPRX4 + RAMP3 1 pg (Fig. S3), normalized per agonist"}, "[4]": {"conditions": "MRGPRX4 + RAMP3 2 pg (Fig. S3), normalized per agonist"}}, "note": "“And” between values parts separate entries of the source, which are not always exact repeats. Equal values may be shown once. Read-outs that look alike come from different tables or passages of the source."}
{"smiles": "C[C@H](CCC(=O)O)[C@H]1CC[C@H]2[C@@H]3CC[C@@H]4C[C@H](O)CC[C@]4(C)[C@H]3C[C@H](O)[C@]12C", "note": "[DCA, deoxycholic acid]", "values": [{"measurement": "activation at 100 µM", "setting": "ratio MRGPRX4:RAMP3 1:0.25", "result": 92.7, "unit": "%"}, {"measurement": "activation at 20 µM", "setting": "ratio MRGPRX4:RAMP3 1:0.25", "result": 69.5, "unit": "%"}, {"measurement": "activation at 4 µM", "setting": "ratio MRGPRX4:RAMP3 1:0.25", "result": 48.4, "unit": "%"}, {"measurement": "activation at 0.8 µM", "setting": "ratio MRGPRX4:RAMP3 1:0.25", "result": 35.7, "unit": "%"}, {"measurement": "activation at […]", "setting": "ratio MRGPRX4:RAMP3 1:0.25", "result": 34.1, "unit": "%"}, {"measurement": "activation at 0.032 µM", "setting": "ratio MRGPRX4:RAMP3 1:0.25", "result": 31.5, "unit": "%"}, {"measurement": "activation at 100 µM", "setting": "ratio MRGPRX4:RAMP3 1:0.5", "result": 90.4, "unit": "%"}, {"measurement": "activation at 20 µM", "setting": "ratio MRGPRX4:RAMP3 1:0.5", "result": 53.8, "unit": "%"}, {"measurement": "activation at 4 µM", "setting": "ratio MRGPRX4:RAMP3 1:0.5", "result": 33.6, "unit": "%"}, {"measurement": "activation at 0.8 µM", "setting": "ratio MRGPRX4:RAMP3 1:0.5", "result": 22, "unit": "%"}, {"measurement": "activation at […]", "setting": "ratio MRGPRX4:RAMP3 1:0.5", "result": 21.2, "unit": "%"}, {"measurement": "activation at 0.032 µM", "setting": "ratio MRGPRX4:RAMP3 1:0.5", "result": 21.7, "unit": "%"}, {"measurement": "activation at 100 µM", "setting": "ratio MRGPRX4:RAMP3 1:1", "result": 97.9, "unit": "%"}, {"measurement": "activation at 20 µM", "setting": "ratio MRGPRX4:RAMP3 1:1", "result": 49.2, "unit": "%"}, {"measurement": "activation at 4 µM", "setting": "ratio MRGPRX4:RAMP3 1:1", "result": 28.3, "unit": "%"}, {"measurement": "activation at 0.8 µM", "setting": "ratio MRGPRX4:RAMP3 1:1", "result": 19.5, "unit": "%"}, {"measurement": "activation at […]", "setting": "ratio MRGPRX4:RAMP3 1:1", "result": 19.6, "unit": "%"}, {"measurement": "activation at 0.032 µM", "setting": "ratio MRGPRX4:RAMP3 1:1", "result": 18.9, "unit": "%"}, {"measurement": "activation at 20 µM", "setting": "ratio MRGPRX4:RAMP3 1:2", "result": 48.1, "unit": "%"}, {"measurement": "activation at 4 µM", "setting": "ratio MRGPRX4:RAMP3 1:2", "result": 23.1, "unit": "%"}, {"measurement": "activation at […]", "setting": "ratio MRGPRX4:RAMP3 1:2", "result": 16.8, "unit": "%"}, {"measurement": "activation at 0.032 µM", "setting": "ratio MRGPRX4:RAMP3 1:2", "result": 15.3, "unit": "%"}, {"measurement": "Emax", "setting": "Figure 4a bottom, DNA ratio MRGPRX4:RAMP3 1:0.75, MRGPRX4 alone = 100, read-out: efficacy", "result": 74.9, "unit": "%"}, {"measurement": "response to agonist, X4:ramp3.I:0.25", "setting": "Figure 4c-f, agonist 100µM, X4:ramp3 1:0.25, MRGPRX4 = 100", "result": "83.1455 and 78.9266"}, {"measurement": "response to agonist, X4:ramp3.I:0.5", "setting": "Figure 4c-f, agonist 100µM, X4:ramp3 1:0.5, MRGPRX4 = 100", "result": "72.4625 and 76.3406"}, {"measurement": "response to agonist, X4:ramp3.I:1", "setting": "Figure 4c-f, agonist 100µM, X4:ramp3 1:1, MRGPRX4 = 100", "result": "72.2618 and 56.5732"}, {"measurement": "IP1 Basal", "setting": "[1]", "result": 26.80}, {"measurement": "IP1 span (top minus basal of the concentration-response fit)", "setting": "[1]", "result": 84.2, "unit": "%"}, {"measurement": "Emax", "setting": "MRGPRX4 + RAMP3 0.25 pg (Fig. S3), normalized per agonist, read-out: IP1 Emax", "result": 111, "unit": "%"}, {"measurement": "IP1 Basal", "setting": "[2]", "result": 21.60}, {"measurement": "IP1 span (top minus basal of the concentration-response fit)", "setting": "[2]", "result": 78.8, "unit": "%"}, {"measurement": "Emax", "setting": "MRGPRX4 + RAMP3 0.5 pg (Fig. S3), normalized per agonist, read-out: IP1 Emax", "result": 100, "unit": "%"}, {"measurement": "IP1 Basal", "setting": "[3]", "result": 23.28}, {"measurement": "IP1 span (top minus basal of the concentration-response fit)", "setting": "[3]", "result": 92.1, "unit": "%"}, {"measurement": "Emax", "setting": "MRGPRX4 + RAMP3 1 pg (Fig. S3), normalized per agonist, read-out: IP1 Emax", "result": 115, "unit": "%"}, {"measurement": "IP1 Basal", "setting": "[4]", "result": 14.52}, {"measurement": "IP1 span (top minus basal of the concentration-response fit)", "setting": "[4]", "result": 85.8, "unit": "%"}, {"measurement": "Emax", "setting": "MRGPRX4 + RAMP3 2 pg (Fig. S3), normalized per agonist, read-out: IP1 Emax", "result": 100, "unit": "%"}]}
